Legend:
A-375 melanoma [1] = experiment: Therapeutic efficacy of LipoCam in A-375 melanoma of nude mice (FIG. 12); assay type: in vivo, NMRI-nude mice; settings: iv three times a week for three weeks at equitoxic doses, start at about 100 mm^3
Method: (§1) NMRI-nude mice were purchased from Elevage Janvier and housed in isolated ventilated cages under save environmental conditions (SPF facility, 22° C., 30-70% humidity, 12 h light/dark cycle) with food and water ad libitum. Experimental design was reviewed and approved by local government.
(§2) Tumor cells (A-375 human melanoma cell line, ATCC Nr.: CRL-1619) were grown as described in the data sheet supplied by ATCC. Tumor cells (5×10^6 in PBS) were inoculated s.c. in the right dorsal flank of mice in a volume of 50 μl on day 0.
Mice were assigned to the experimental groups (8 animals per cage), housed and handled (including monitoring of the body weight gain) at least five days before tumor inoculation (=day −6 to 0). […] Equitoxic doses of the compounds were determined in separate experiments, where toxicity was evaluated based on haematological parameters, body weight and animal clinical observations (see Tab. 3). […] Animals were clinically monitored during the whole experiment, monitoring of tumor size was performed three times a week. The tumor dimensions were measured by caliper and the tumor size was calculated according to the following formula: V=πL W^2/6 (L=greatest length, W=width of perpendicular axis). The body weight of individual animals was monitored at least twice during handling period, after tumor inoculation and after start of treatment. […]

A-375 melanoma [2] = experiment: Therapeutic efficacy of LipoCam IV and VI in A-375 melanoma of nude mice (FIG. 13); assay type: in vivo, NMRI-nude mice; settings: 1 and 2 mg/kg iv three times a week for three weeks
Method: as §1, §2
Mice were assigned to the experimental groups (8 animals per cage), housed and handled (including monitoring of the body weight gain) at least five days before tumor inoculation (=day −6 to 0). […] Toxicity was evaluated based on hematological parameters, body weight and animal clinical observations. […]
Animals were clinically monitored during the whole experiment, monitoring of tumor size was performed three times a week. The tumor dimensions were measured by caliper and the tumor size was calculated according to the following formula: V=πL W^2/6 (L=greatest length, W=width of perpendicular axis). The body weight of individual animals was monitored at least twice during handling period, after tumor inoculation and after start of treatment. […] The number of red and white blood cells and platelets were determined using an automated cell counter (Abbott Cell Dyn 3500).

[3] = Fluorescence anisotropy of CPT in lipid suspensions; assay type: physicochemical; settings: 10 mM Tris-buffer pH 7.5, 10% trehalose
Excerpt: These finding are corroborated by fluorescence anisotropy measurements of the CPT. In this experiment, an increase of the fluorescence anisotropy is expected if the fluorophore is inserted into a liposome and thus its mobility is decreased. […] DOTAP and DOPC both comprise unsaturated fatty acid chains, but DOTAP is positively charged while DOPC is neutral.
For efficient binding, in addition to charge, the phase state of the fatty acid chains is important. […] DOTAP has its main phase transition (Tm) near 37° C. […] Below that temperature the fatty acid chains are in the gel phase (a crystalline like state) and above they are in the liquid crystalline (fluid-like) state.
FIG. 9: Fluorescence anisotropy measurements of CPT in lipid suspensions from DOTAP and DOPC and as prepared by different methods. […]
FIG. 10: Comparison of fluorescence anisotropy measurements with DOTAP and DMTAP Measurements with CPT and with 10-OH-CPT are shown. […]
In order to get further information on the CPT-lipid interaction form an independent method, fluorescence anisotropy measurements were performed. […] The fluorescence anisotropy was taken as a measure for the binding strength of CPT to the liposome. […]
Fluorescence anisotropy measurements from liposomes with two different cationic lipids, DOTAP and DMTAP, and two different CPT drugs (CPT and 10-OH-CPT) are compared. […]

## CC[C@@](O)(C(=O)[O-])c1cc2n(c(=O)c1CO)Cc1cc3ccccc3nc1-2.[Na+] [CPT-Na-Carboxylate]
A-375 melanoma [1]
  Anti-tumor effect (tumor volume): only a retardation

## CCC(O)(C(=O)O)c1cc2n(c(=O)c1CO)Cc1cc3ccccc3nc1-2 (stereo not shown) [CPT-carboxylate]
A-375 melanoma [2]
  Order of antitumor efficacy: LipoCam IV (2 mg/kg)>LipoCam VI (1 mg/kg)>CPT-carboxylate (2 mg/kg)>CPT-carboxylate (1 mg/kg)
[3]
  Fluorescence anisotropy (measure of binding strength of CPT to the liposome): zero

## CC[C@@]1(O)C(=O)OCc2c1cc1n(c2=O)Cc2cc3cc(O)ccc3nc2-1 [Formulation 10-OH-CPT, 10-Hydroxy-camptothecin]
[3]
  Fluorescence anisotropy (measure of binding strength of CPT to the liposome): higher binding efficacy

From patent publication US20060128736A1, “Camptothecin-carboxylate formulations” (priority 2002, published 2006)
